In data set [1] the test system is human airway epithelia. Description: fluid phase endocytosis, uptake of Texas Red dextran. It counts as cell-based. The conditions noted are these: 0.15 μM peptide applied to apical surface, FIG. 4. The protocol: B. Assay for Fluid Phase Endocytosis: Cells were chilled on ice for 15 minutes and then incubated with […] uPA or 0.15 μM u7-peptide (SEQ ID NO:1) added to the apical surface for 30 minutes at 4° C. Following 3 washes in PBS, cells were incubated with 0.5 mg/ml Texas Red-labeled fixable dextran (3,000 MW, Molecular Probes, Eugene, Oreg.) for 10 minutes at 37° C. Following 3 washes in PBS, cells were fixed with 4% paraformaldehyde, mounted onto class slides with Vectashield (Vector Laboratories, Inc., Burlingame, Calif.), and viewed by fluorescence microscopy. Control cells were incubated with Texas Red-labeled dextran alone to measure basal levels of endocytosis. Monkey tracheal explants were assayed as described for primary cell cultures. To evaluate time-dependent changes, cells were treated as described above with uPA (50 nM) followed by incubations in Texas Red dextran for 5, 10, 30 or 60 minutes at 37° C. […]
B. Effect of uPA on Fluid Phase Endocytosis in Human Airway Epithelia: Stimulation of endocytosis by uPA was determined by measuring the uptake of Texas Red-conjugated dextran, a fluid phase marker. […]

Data set [2] relates to human airway epithelia. The data set can be described thus: tight junction integrity measured by transepithelial resistance. The conditions noted are these: following uPA or u7 treatment. The protocol: D. uPA Enhancement of Gene Transfer: The ability of uPA to enhance gene transfer by nonspecifically bound vector was tested.
The subject of the next data set is CF airway epithelia. The data set can be described thus: cAMP-stimulated short-circuit current after Ad2/CFTR-16:CaPi gene transfer. It counts as cell-based, human. The note with it: FIG. 5C; for correction of Cl− channel defect (cAMP-stimulated current): CF airway epithelia, Ad2/CFTR-16 in CaPi coprecipitate. As for the experimental part:
C. Measurement of Transepithelial Electrical Properties: Epithelia were mounted in modified Ussing chambers (Jim's Instruments, Iowa City, Iowa) and bathed with Ringer's solution on their submucosal side (135 mM NaCl, 2.4 K2HPO4, 0.6 mM […], 1.2 mM CaCl2, 1.2 mM MgCl2, 5 mM Hepes, pH 7.4 and 10 mM dextrose). The mucosal surface was bathed in the identical solution, except that 135 mM NaGluconate replaced the 135 mM NaCl. In this way, a transepithelial Cl^− concentration gradient was established in order to magnify changes in Cl^− transport. The transepithelial Na^+ transport was blocked with mucosal amiloride (10 μM). Mucosal DIDS (100 μM) blocked non-CFTR Cl^− transport. The cAMP agonists, forskolin (10 μM) and IBMX (100 μM) were applied to both solutions to stimulate transepithelial Cl^− transport via CFTR.
The ability of uPA to enhance gene transfer and expression of CFTR in differentiated CF airway epithelia was also tested.

In data set [3] the test system is human airway epithelia. Description: gene transfer by adenovirus:CaPi coprecipitate (β-galactosidase activity). It counts as cell-based. As for the experimental part:
B. Evaluation of Gene Transfer: The apical surface of human airway epithelia was washed once with PBS. Adenovirus was applied at a multiplicity of infection (MOI) of 50 to the apical surface for 30 minutes at 37° C. Adenovirus was applied either alone or in a CaPi coprecipitate as previously described by Fasbender et al., J. Clin. Invest. 102:184-193 (1998) and Lee et al., Hum. Gene Ther. 10:603-13 (1999) (incorporated herein by reference). Following 3 washes, cells were returned to the incubator and assayed for gene transfer 48 hours later. AAV2 was applied at an MOI<1 to the apical surface for 30 minutes at 37° C. AAV2 was applied either alone or on a CaPi coprecipitate formed as previously described by Fasbender et al. and Lee et al. for adenovirus. Following 3 washes, cells were returned to the incubator and assayed for gene transfer 14 days later. Total β-galactosidase activity was measured using a commercially available technique (Galacto-Light, Topix, Bedford, Mass.).

We go through 2 substances from US7786088B2, “Targeting vector to the urokinase plasminogen activator receptor” (University of Iowa Research Foundation, priority 2000, dated 2010).

As for “CLNGGTC (listed as Homo sapiens) [u7-peptide, seven residue peptide comprising amino acids 13-19 of uPA]”, in the data set with human airway epithelia [1], the “stimulation of fluid phase endocytosis” value is listed as “stimulated fluid phase endocytosis”. Further, the transepithelial resistance entry in the data set with human airway epithelia [2] is reported as “did not change”. The entries for the “correction of Cl− channel defect (cAMP-stimulated current)” value in the data set with CF airway epithelia and with CF airway epithelia (listed as u7 peptide) were “further enhanced the correction” and “to a greater extent than the full length uPA”, respectively. Besides, the “uptake of a vector expressing CFTR” value with CF airway epithelia (cystic fibrosis (CF) airway epithelia) was “enhanced the uptake”. Besides, in the data set with human airway epithelia [3] (apical application before CaPi:adenovirus coprecipitates (uPA 50 nM), assayed 48 hours later, FIG. 5A), the “increase in gene transfer compared to the coprecipitate alone” value is on record as 8-10 fold. Also, in the data set with human airway epithelia [3] (compared with uPA), the “effect on gene transfer by CaPi coprecipitate (in words)” value was “effect similar to uPA”.

Take “CTCGNCL [scrambled peptide, reference compound]”: the “stimulation of fluid phase endocytosis” value with human airway epithelia [1] is reported as “did not”.
